Source: patent US6673902B2, “Cyclin D binding factor, and uses thereof” (St. Jude Children's Research Hospital, priority 1996, dated 2004)

What was measured:
D-type cyclins = assay: Co-expression with D-type cyclins in Sf9 cells and co-precipitation; type: binding, mouse
Experimental: BamHI linkers are added to an XbaI-EcoRV cDNA fragment containing the entire DMP1 coding sequence, and the fragment is inserted into the BamHI site of the pAcYM1 baculovirus vector (37). Production of virus and infection of Spodoptera frugiperda (Sf9) cells are performed as previously described (23). For preparation of radiolabeled cell lysates, cells infected with the indicated recombinant viruses encoding DMP1, CDKs, and/or cyclins are metabolically labeled 40 hours post-infection for 8 additional hours with 50 uCi/ml of [^35S]methionine (1000 Ci/mmol; ICN, Irvine Calif.) in methionine-free medium or for 4 additional hours with 250 uCi/ml of carrier-free ^32P-orthophosphate (9000 Ci/mmol, Amersham) in phosphate-free medium. Cells suspended in 0.25 ml Kinase buffer containing protease and phosphatase inhibitors [2.5 mM EGTA, 0.1 mM phenylmethyl sulfonylfluoride (PMSF), 2% aprotinin, 1 mM β-glycerophosphate, 0.1 mM Na3VO4, and 0.1 mM NaF] are lysed by repeated freezing and thawing and clarified by centrifuigation. […]
We next co-expressed full length DMP1 together with D-type cyclins under baculovirus vector control in insect Sf9 cells. […] Electrophoretic separation of unfractionated metabolically labeled lysates from infected cells enabled direct autoradiographic visualization and relative quantitation of the recombinant mouse proteins (FIG. 3A). […]

[1] = test system: BS2-driven reporter plasmid; assay: Transactivation of BS2-driven luciferase reporter in 293T cells; type: cell-based, human; conditions: 1 μg BS2-driven reporter
Text: An XbaI-EcoRV fragment containing the entire DMP1 coding sequence is subcloned by blunt end ligation into a SpeI-XbaI fragment of the Rc/RSV vector (Invitrogen, La Jolla Calif.) to enable DMP1 expression in mammalian cells. 6×concatamerized BS1, 8×concatamerized, BS2, or 7×concatamerized M3 oligonucleotides (FIG. 5B) are inserted into the XhoI-SmaI sites of pGL2 (Pfornega) 5′ to a minimal simian virus 40 (SV40) early promoter driving firefly luciferase gene expression. The latter “reporter” plasmid (1 μg) together with increasing amounts of pRc/RSV-DMP1 expression plasmid compensated by decreasing quantities of control pRc/RSV DNA (total of both=2.5 μg) were transfected into 293T cells (1.5×10^6 cells per 60 mm diameter culture dish) by calcium phosphate precipitation (7). Two days later, cells were harvested, washed three times with PBS, and lysed in 1 ml of 25 mM glycylglycine (Sigma), pH 7.8, 15 mM MgSO4, 4 mM EDTA, 1 mM DTT, and 1% Triton X-100. After clearing by centrifugation, 50 μl aliquots were assayed diluted to 350 μl using 15 mM potassium phosphate buffer, pH 7.8, containing 15 mM MgSO4, 4 mM EGTA, 2 mM ATP, 1 mM DTT, and 67 uM luciferin (Sigma). Total light emission was measured for duplicate samples during the initial 20 seconds after luciferin injection with an Optocomp I luminometer (MGM Instruments, Hamden Conn.). […]

In the case of “DMP1: murine cyclin D-associated myb-like transcription factor, 761 amino acids, SEQ ID NO:1”, the “DMP1 molecules forming stable complexes with D-type cyclins” value (D-type cyclins; coexpressed in Sf9 cells) is reported as at most 15%, the cyclin stably bound (D-type cyclins; coinfected Sf9 cells, approximately equivalent levels of protein and cyclin D2 or cyclin D3) is reported as 5-15% and the “transactivation of luciferase activity relative to reporter plasmid alone” value [1] is reported as about 20 fold.
